Test: Dynamics upon oral administration to mice (blood level, urinary and fecal excretion)
Assay type: in vivo, ICR mice
Settings: single oral dose 0.5 mg per g of body weight
Method: 4-trehalosamine or trehalose dissolved in saline at 0.5 mg/10 μL per g of body weight was orally administered in a single dose to ICR mice (9-week to 10-week old, female, n=5) that had been fasted overnight. The five mice on which the same treatment had been performed were placed in the same cage.
Urine and feces were regularly collected together. The collected feces were suspended in water at 200 mg/mL and centrifuged at 21,300×g for 5 minutes. The centrifuged supernatant of feces suspension and the collected urine were each diluted with methanol to 1/1,000, on which LC-MS analysis was performed under similar conditions to test example 1 and cumulative excretion of 4-trehalosamine (4TA) or trehalose (TRH) over time was calculated.
Blood was regularly collected from tail vein in an amount of around 10 μL to 20 μL, and 200 μL of methanol was added to it after measurement. After agitation on a vortex, it was centrifuged at 21,000×g for 5 minutes. The supernatant was diluted with methanol to ⅕ and LC-MS analysis was performed on it under similar conditions to test example 1. The results for 4-trehalosamine are shown in FIG. 19G and the results for trehalose are shown in FIG. 19H for each individual (n=5).

For `N[C@H]1[C@H](O)[C@@H](O)[C@@H](O[C@H]2O[C@H](CO)[C@@H](O)[C@H](O)[C@H]2O)O[C@@H]1CO` [4-trehalosamine], the “absorption and blood circulation after oral administration” value (fasted) was “a portion of orally administered 4-trehalosamine is absorbed and circulates in blood for a certain amount of time” and the excretion (urine and feces) was “excreted through feces and urine in the original form, without being degraded or modified”.
